{"source": "the Kinase Knowledgebase extract (Sharma et al. 2016)"}
{"molecular_target": "PIK3CG (human) (UniProt P48736)", "sequence (P48736 whole entry, looked up)": "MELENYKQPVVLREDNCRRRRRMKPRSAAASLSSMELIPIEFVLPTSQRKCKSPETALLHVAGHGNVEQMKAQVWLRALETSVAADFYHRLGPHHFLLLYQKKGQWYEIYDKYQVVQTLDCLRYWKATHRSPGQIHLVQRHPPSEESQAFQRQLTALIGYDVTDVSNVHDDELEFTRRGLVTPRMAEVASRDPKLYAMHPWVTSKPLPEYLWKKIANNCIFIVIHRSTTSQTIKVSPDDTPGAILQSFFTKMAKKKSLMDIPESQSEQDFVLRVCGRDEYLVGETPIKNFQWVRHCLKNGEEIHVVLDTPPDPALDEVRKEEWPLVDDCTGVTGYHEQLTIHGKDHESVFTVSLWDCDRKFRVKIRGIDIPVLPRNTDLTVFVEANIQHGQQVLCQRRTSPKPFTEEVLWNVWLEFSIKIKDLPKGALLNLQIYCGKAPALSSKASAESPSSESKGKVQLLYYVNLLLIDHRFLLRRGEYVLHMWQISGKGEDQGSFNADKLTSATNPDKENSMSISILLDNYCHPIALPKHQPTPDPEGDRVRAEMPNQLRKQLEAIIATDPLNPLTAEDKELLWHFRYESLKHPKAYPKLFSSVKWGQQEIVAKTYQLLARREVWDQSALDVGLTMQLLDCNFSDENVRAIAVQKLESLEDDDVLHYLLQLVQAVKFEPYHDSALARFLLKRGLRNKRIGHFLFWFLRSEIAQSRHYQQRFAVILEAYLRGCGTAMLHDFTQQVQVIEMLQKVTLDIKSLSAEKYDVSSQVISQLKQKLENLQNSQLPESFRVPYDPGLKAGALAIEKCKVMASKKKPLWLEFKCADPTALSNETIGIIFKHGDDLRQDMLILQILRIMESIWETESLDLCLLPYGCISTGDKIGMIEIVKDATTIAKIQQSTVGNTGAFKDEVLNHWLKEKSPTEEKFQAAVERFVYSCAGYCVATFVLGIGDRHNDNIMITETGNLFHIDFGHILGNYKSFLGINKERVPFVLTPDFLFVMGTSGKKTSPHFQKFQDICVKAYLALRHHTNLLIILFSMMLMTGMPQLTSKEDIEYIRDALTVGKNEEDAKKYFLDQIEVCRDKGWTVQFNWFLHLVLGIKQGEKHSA", "test": "Inhibition of PIK3CG Kinase Activity", "units": {"Ki": "nM"}}
{"smiles": "Cc1cc(-c2cnc(C)c(OCC(F)F)c2)nc2c1C(=O)N(c1cnn(CC(F)F)c1)C2(C)C", "Ki": "< 100"}
{"smiles": "CCCOc1cc(-c2cc(C)c3c(n2)CN(c2cn[nH]c2)C3=O)cnc1OC", "Ki": "< 100"}
{"smiles": "CCOc1ncc(-c2cc(C)c3c(n2)CN(c2cc[nH]n2)C3=O)cc1OC", "Ki": "< 100"}
{"smiles": "CCOc1cncc(-c2cc(C)c3c(n2)C(C)(C)N(c2cn[nH]c2)C3=O)c1", "Ki": "100 to 490"}
{"smiles": "CCn1cc(N2C(=O)c3ccc(-c4cnc(OC)c(OC)c4)nc3[C@H]2C)cn1", "Ki": "< 100"}
{"smiles": "COc1cncc(-c2cc(C)c3c(n2)[C@H](C)N(c2cn[nH]c2)C3=O)c1", "Ki": "< 100"}
{"smiles": "Cc1cc(-c2cncc(C(=O)N(C)C(C)CO)c2)nc2c1C(=O)N(c1cnn(CC(F)(F)F)c1)C2", "note": "(configuration not stated)", "Ki": "100 to 490"}
{"smiles": "CCc1ncc(-c2cc(C)c3c(n2)CN(c2cnn(CC(F)(F)F)c2)C3=O)cc1OC", "Ki": "< 100"}
{"smiles": "Cc1cc(-c2cncc(OC(C)C)c2)nc2c1C(=O)N(c1cnn(CC(F)(F)F)c1)C2(C)C", "Ki": "< 100"}
{"smiles": "Cc1cc(-c2cncc(S(C)(=O)=O)c2)nc2c1C(=O)N(c1cnn(CC(F)(F)F)c1)[C@@H]2C", "Ki": "< 100"}
{"smiles": "COc1cc(-c2ccc3c(n2)CN(c2ccc(OCCCC(F)(F)F)nc2)C3=O)cnc1OC", "Ki": "< 100"}
{"smiles": "COc1cncc(-c2cc(C)c3c(n2)C2(CNC2)N(c2cnn(CC(F)(F)F)c2)C3=O)c1", "Ki": "< 100"}
{"smiles": "Cc1cc(-c2cnc(C)c(OCC(F)(F)F)c2)nc2c1C(=O)N(c1ccn([C@H]3CCOC3)n1)C2", "Ki": "< 100"}
{"smiles": "COc1cc(-c2ccc3c(n2)C(C)N(c2cc[nH]n2)C3=O)cnc1OC", "note": "(configuration not stated)", "Ki": "< 100"}
{"smiles": "CCn1ccc(N2C(=O)c3c(C)cc(-c4cncc(OC)c4)nc3C2(C)C)n1", "Ki": "100 to 490"}
{"smiles": "COc1cc(-c2cc(C)c3c(n2)C(OCC2CC2)N(c2cnn(CC(F)(F)F)c2)C3=O)cnc1OC", "note": "(configuration not stated)", "Ki": "< 100"}
{"smiles": "COc1cncc(-c2cc(C)c3c(n2)[C@H](C)N(c2ccn(C[C@H](C)O)n2)C3=O)c1", "Ki": "< 100"}
{"smiles": "COc1ncc(-c2cc(C)c3c(n2)CN(c2cnn(CC(F)(F)F)c2)C3=O)cc1OC1CCOCC1", "Ki": "< 100"}
{"smiles": "COc1cc(-c2cc(C)c3c(n2)CN(c2cncc(S(C)(=O)=O)c2)C3=O)cnc1OC", "Ki": "< 100"}
{"smiles": "COc1cc(-c2ccc3c(n2)CN(c2cnn(Cc4ccccn4)c2)C3=O)cnc1OC", "Ki": "< 100"}
{"smiles": "COc1cc(-c2ccc3c(n2)C2(CC2)N(c2cnn(CC(F)(F)F)c2)C3=O)cnc1OC", "Ki": "< 100"}
{"smiles": "COc1cc(-c2cc(C)c3c(n2)CN(c2cccc(C(C)(C)C#N)n2)C3=O)cnc1OC", "Ki": "< 100"}
{"smiles": "COCCOCn1cc(N2C(=O)c3ccc(-c4cnc(OC)c(OC)c4)nc3[C@H]2C)cn1", "Ki": "< 100"}
{"smiles": "COc1cc(-c2cc(C)c3c(n2)C(C)(C)N(c2cnn(CC(F)(F)F)c2)C3=O)cnc1C", "Ki": "< 100"}
{"smiles": "COc1cc(-c2ccc3c(n2)C(C)N(c2ccn(CC(F)(F)F)n2)C3=O)cnc1OC", "note": "(configuration not stated)", "Ki": "< 100"}
{"smiles": "Cc1ncc(-c2ccc3c(n2)CN(c2cnn(CC(F)(F)F)c2)C3=O)cc1OCC(F)F", "Ki": "100 to 490"}
{"smiles": "COc1ncc(-c2cc(C)c3c(n2)C(C)(C)N(c2cnn(CC(F)(F)F)c2)C3=O)cc1C(=O)NCCN(C)C", "Ki": "< 100"}
{"smiles": "Cc1cc(-c2cncc(OC(C)C)c2)nc2c1C(=O)N(c1cnn(CC(F)(F)F)c1)C2", "Ki": "< 100"}
{"smiles": "COc1cc(-c2ccc3c(n2)CN(c2ccc(=O)n(CC#N)c2)C3=O)cnc1OC", "Ki": "< 100"}
{"smiles": "CCOc1cncc(-c2cc(C)c3c(n2)[C@@H](OC)N(c2cnn(CC(F)(F)F)c2)C3=O)c1", "Ki": "< 100"}
{"smiles": "COCCCn1cc(N2Cc3cc(-c4cnc(OC)c(OC)c4)ccc3C2=O)cn1", "Ki": "100 to 490"}
{"smiles": "CCC1(O)c2nc(-c3cnc(OC)c(OC)c3)cc(C)c2C(=O)N1c1cnn(CC(F)(F)F)c1", "note": "(configuration not stated)", "Ki": "< 100"}
{"smiles": "CCOc1ncc(-c2cc(C)c3c(n2)[C@]2(CCCO2)N(c2cnn(CC(F)(F)F)c2)C3=O)cc1OC", "Ki": "< 100"}
{"smiles": "COc1cncc(-c2cc(C)c3c(n2)C(C)(C)N(c2cnn(CC(F)(F)F)c2)C3=O)c1", "Ki": "< 100"}
{"smiles": "COc1cncc(-c2cc(C)c3c(n2)C(C)N(c2ccn(CC4CCCO4)n2)C3=O)c1", "note": "(configuration not stated)", "Ki": "< 100"}
{"smiles": "COc1cc(-c2cc(C)c3c(n2)CN(c2ccc(OCCC(F)(F)F)nc2)C3=O)cnc1OC", "Ki": "< 100"}
{"smiles": "CCn1cc(N2Cc3nc(-c4cnc(OC)c(OCC5CC5)c4)cc(C)c3C2=O)cn1", "Ki": "< 100"}
